Reference: patent US11613531B2, “Inhibitors of RHO associated coiled-coil containing protein kinase” (Kadmon Corporation, LLC, priority 2017, dated 2023)
Entries after “also recorded” stand apart in the source; their conditions may differ. Read-outs that look alike come from different tables or passages of the source. One block for each molecule: values may come before it.

Columns and labels:
[1] = target: Recombinant ROCK1 (amino acids 1-535) (Homo sapiens (Human), UniProt Q13464); assay: Z′-Lyte kinase assay, ROCK1; assay type: biochemical; conditions: for inhibition at 0.5 µM: 0.5 μM compound
Summary of the method: (§1)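 Recombinant human ROCK1 (aa 1-535) or ROCK2 (aa 1-552) activity read by Z′-Lyte kinase assay. Percent inhibition at 1 μM compound was normalized to DMSO control; IC50 from 9-point 2-fold serial dilutions by nonlinear regression.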

[2] = target: Recombinant ROCK2 (amino acids 1-552) (Homo sapiens (Human), UniProt O75116); assay: Z′-Lyte kinase assay, ROCK2; assay type: biochemical; conditions: for inhibition at 1 µM: 1 μM compound; for inhibition at 0.5 µM: 0.5 μM compound
Summary of the method: as §1

[3] = system: ppMlc (T18/S19) levels in A7R5 cells; assay: A7R5 in-cell ELISA (pMLC); assay type: cell-based, Rat; conditions: Rattus norvegicus, A7R5, A7R5 cells; for inhibition at 1 µM: 1 μM compound; for inhibition at 1 µM / inhibition at 10 µM: read-out: pMLC % inh A7R5 @ [conc]; for inhibition at 10 µM: 10 μM compound
Summary of the method: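 A7R5 rat aortic smooth muscle cells seeded 24 h, then treated 90 min with a 9-point 2-fold compound dilution series. Fixed cells probed for ppMlc (T18/S19) by colorimetric in-cell ELISA; cellular IC50 from nonlinear regression curve fit.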

[4] = system: human ACTA2 gene promoter luciferase reporter in NIH3T3 cells; assay: NIH3T3 Acta2-promoter driven-luciferase assay; assay type: cell-based; conditions: NIH3T3, 24 h, read-out: NIH3T3 Acta2-luc, IC50
Summary of the method: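 NIH3T3 cells stably carrying a human ACTA2 promoter (−1000-1 bp)-luciferase reporter, grown to confluence, treated 24 hr with compound plus TGFβ1 at 9-point serial dilution. Luciferase read after lysis; IC50 by nonlinear regression.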

[5] = system: CCD18lu human lung fibroblasts; assay: F-actin stress fiber formation (phalloidin staining); assay type: cell-based
[6] = system: MKL1 in CCD18Lu human lung fibroblasts; assay: MKL1 nuclear translocation, immunofluorescent staining; assay type: cell-based; conditions: 3 μM, 3 hours
Description: FIG. 3. Immunofluorescent staining of MKL1 in human lung fibroblasts. CCD18Lu human lung fibroblasts were treated with compounds for 3 hours and fixed and stained for MKL1, F-actin and DAPI. […] The Example 228 compound abolished nuclear accumulation of MKL1 in cultured human lung fibroblasts. CCD18Lu human lung fibroblasts were treated with the ROCK inhibitor (3 μM) for 3 hours and fixed and stained for MKL1, F-actin and DAPI.

[7] = system: Detroit 562 cells; assay: Integrin αvβ6 mediated latent TGFβ activation (phospho-Smad2/3); assay type: cell-based; conditions: with thrombin, 2 hours
Description: FIG. 5. ROCK inhibitor (Example 228) blocked integrin αvβ6 mediated latent TGFβ activation. Integrin αvβ6 positive cell line Detroit 562 cells were plated and treated with compounds in combination with parl ligand thrombin for 2 hours, lysed and activation of TGFβ signaling was detected by phosphorylation of transcription factors Smad2/3. Integrin αvβ6 mediated latent TGFβ activation requires ROCK activity (Jenkins et al., 2006). Activation of the latent TGF3 complex is a key step in regulating the biological availability of this molecule and its subsequent activities. Under tissue injury, extracellular protease cleavage of cell membrane receptor protease-activated receptor 1 (parl) leads to activation of Rho/ROCK, which in turn activates latent ECM associated TGFβ through cell membrane integrin αvβ6. […] Integrin αvβ6 positive cell line Detroit 562 cells were plated and treated with compounds in combination with parl ligand thrombin for 2 hours, lysed and activation of TGFβ signaling was detected by phosphorylation of transcription factors Smad2/3.

[8] = system: ppMLC in SVEC4-10 cells; assay: Thrombin induced MLC phosphorylation western blot; assay type: cell-based, Mouse; conditions: SVEC4-10 endothelial cells, increasing doses of thrombin, 10 min
Description: FIG. 7b. […] Mouse endothelial cell line SVEC4-10 cells were cultured and treated with increasing doses of thrombin in combination with ROCKi for 10 min. ppMLC signal was detected by western blot. […] Mouse endothelial cell line SVEC4-10 was cultured and treated with increasing doses of thrombin in combination with ROCK inhibitor for 10 min. ppMLC signal was detected by western blot. […] Collectively, the above data strongly supports the ROCK inhibitors of the invention as an effective intervention in fibrotic diseases.

[9] = 9 points 2-fold serial dilution
[10] = read-out: ROCK2 % inh. @ [conc]
[11] = NIH3T3 cells, plus TGFβ1 for 24 hr
[12] = read-out: ROCK1 % inh. @ [conc]

Chain of Recombinant ROCK1 (amino acids 1-535) (Q13464 1-535): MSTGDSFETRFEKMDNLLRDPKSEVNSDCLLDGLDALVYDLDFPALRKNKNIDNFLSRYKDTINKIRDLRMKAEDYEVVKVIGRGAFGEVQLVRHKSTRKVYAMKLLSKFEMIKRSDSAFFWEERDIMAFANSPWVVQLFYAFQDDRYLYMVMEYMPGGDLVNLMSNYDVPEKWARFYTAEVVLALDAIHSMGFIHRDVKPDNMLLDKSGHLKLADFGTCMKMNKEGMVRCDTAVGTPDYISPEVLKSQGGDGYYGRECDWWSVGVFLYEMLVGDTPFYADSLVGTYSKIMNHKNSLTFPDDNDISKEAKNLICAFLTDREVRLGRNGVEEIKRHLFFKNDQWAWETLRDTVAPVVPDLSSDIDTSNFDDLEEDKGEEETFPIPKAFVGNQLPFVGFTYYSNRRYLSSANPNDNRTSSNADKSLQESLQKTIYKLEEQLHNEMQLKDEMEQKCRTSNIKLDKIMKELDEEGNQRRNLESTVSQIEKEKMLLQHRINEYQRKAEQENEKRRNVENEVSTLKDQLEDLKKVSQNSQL
Chain of Recombinant ROCK2 (amino acids 1-552) (O75116 1-552): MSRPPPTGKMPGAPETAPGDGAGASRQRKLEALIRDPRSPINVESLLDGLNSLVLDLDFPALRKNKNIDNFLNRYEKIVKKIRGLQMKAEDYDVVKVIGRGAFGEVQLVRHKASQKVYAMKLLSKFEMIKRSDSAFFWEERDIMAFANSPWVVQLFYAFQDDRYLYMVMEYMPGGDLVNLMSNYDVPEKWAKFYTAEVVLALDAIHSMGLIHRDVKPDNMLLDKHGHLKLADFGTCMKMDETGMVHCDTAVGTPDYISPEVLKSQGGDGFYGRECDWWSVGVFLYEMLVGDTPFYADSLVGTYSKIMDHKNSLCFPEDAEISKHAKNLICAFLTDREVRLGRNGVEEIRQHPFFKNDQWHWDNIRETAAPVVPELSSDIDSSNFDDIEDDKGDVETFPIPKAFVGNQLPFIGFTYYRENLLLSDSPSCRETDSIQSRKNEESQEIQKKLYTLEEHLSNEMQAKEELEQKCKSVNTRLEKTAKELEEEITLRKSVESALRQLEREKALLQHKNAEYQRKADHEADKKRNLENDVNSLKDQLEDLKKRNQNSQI

- IC50 [1, 9]: 65 nM
- inhibition at 1 µM [2, 10]: 99.5%
- IC50 ([3]; ppMlc (T18/S19)): 430 nM
SMILES: CC1CNCCN(c2ncc(F)c(Nc3ccc4[nH]ncc4c3)n2)C1 (stereo not shown) [Example 218, N-(5-fluoro-2-(6-methyl-1,4-diazepan-1-yl)pyrimidin-4-yl)-1H-indazol-5-amine]
- inhibition at 1 µM [3]: 53%
- IC50 [4, 11]: 6110 nM

SMILES: Clc1cnc(N2CC3CC2CN3)nc1Nc1ccc2[nH]ncc2c1 (stereo not shown) [Example 194, N-(2-(2,5-diazabicyclo[2.2.1]heptan-2-yl)-5-chloropyrimidin-4-yl)-1H-indazol-5-amine]
- IC50 [1, 9]: 41 nM
- inhibition at 1 µM [2, 10]: 98.3%
- IC50 [2, 9]: 23 nM
- inhibition at 1 µM [3]: 31.6%
- IC50 ([3]; ppMlc (T18/S19)): 176 nM
- IC50 [4, 11]: 1540 nM

SMILES: Fc1cnc(N2CCNCC2)nc1Nc1ccc2[nH]ncc2c1 [Example 214, N-(5-fluoro-2-(piperazin-1-yl)pyrimidin-4-yl)-1H-indazol-5-amine]
- IC50 [1, 9]: 38 nM
- IC50 [2, 9]: 26 nM
- inhibition at 10 µM [3]: 63%
- IC50 ([3]; ppMlc (T18/S19)): 323 nM
- IC50 [4, 11]: 1250 nM

SMILES: c1cc(Nc2ccc3[nH]ncc3c2)nc(N2C3CCC2CNC3)n1 [Example 228, N-(2-(3,8-diazabicyclo[3.2.1]octan-8-yl)pyrimidin-4-yl)-1H-indazol-5-amine]
- inhibition at 3 µM ([1]; 3 μM compound, read-out: ROCK1 % inh. @ [conc]): 98.5%
- IC50 [1, 9]: 4 nM
- inhibition at 3 µM ([2]; 3 μM compound, read-out: ROCK2 % inh. @ [conc]): 101%
- IC50 [2, 9]: 3 nM
- inhibition at 10 µM [3]: 83%
- IC50 ([3]; ppMlc (T18/S19)): 69 nM
- IC50 [4, 11]: 151 nM
- F-actin stress fiber formation [5]: phenotypically copied gene silencing; also recorded: inhibited
- nuclear accumulation of MKL1 [6]: abolished
- stress fiber formation ([6]; F-actin staining): efficiently cleared
- integrin αvβ6 mediated latent TGFβ activation (phosphorylation of Smad2/3) [7]: blocked
- thrombin induced phosphorylation of MLC [8]: potently inhibited

SMILES: Fc1cnc(N2CC3CC2CN3)nc1Nc1ccc2[nH]ncc2c1 (stereo not shown) [Example 219, N-(2-(2,5-diazabicyclo[2.2.1]heptan-2-yl)-5-fluoropyrimidin-4-yl)-1H-indazol-5-amine]
- IC50 [1, 9]: 18 nM
- IC50 [2, 9]: 41 nM
- inhibition at 1 µM [3]: 46.6%
- IC50 ([3]; ppMlc (T18/S19)): 77 nM
- IC50 [4, 11]: 613 nM

SMILES: c1cc(Nc2ccc3[nH]ncc3c2)nc(N2CC3CC2CN3)n1 (stereo not shown) [Example 201, N-(2-(2,5-diazabicyclo[2.2.1]heptan-2-yl)pyrimidin-4-yl)-1H-indazol-5-amine]
- IC50 [1, 9]: 37 nM
- IC50 [2, 9]: 27 nM
- inhibition at 1 µM [3]: 50.1%
- IC50 ([3]; ppMlc (T18/S19)): 168 nM
- IC50 [4, 11]: 1640 nM

SMILES: Cc1nc(N2C3CCC2CNC3)nc(Nc2ccc3[nH]ncc3c2)c1F [Example 302, N-(2-(3,8-diazabicyclo[3.2.1]octan-8-yl)-5-fluoro-6-methylpyrimidin-4-yl)-1H-indazol-5-amine]
- inhibition at 0.5 µM [1, 12]: 99%
- IC50 [2]: 2.2 nM
- inhibition at 0.5 µM [2, 10]: 98%
- IC50 [3]: 35 nM
- IC50 ([4]; with TGFβ1, 24 hr): 229 nM

SMILES: Fc1cnc(N2CC3CCC(C2)N3)nc1Nc1ccc2[nH]ncc2c1 [Example 217, N-(2-(3,8-diazabicyclo[3.2.1]octan-3-yl)-5-fluoropyrimidin-4-yl)-1H-indazol-5-amine]
- IC50 [1, 9]: 6 nM
- IC50 [2, 9]: 28 nM
- inhibition at 1 µM [3]: 51.2%
- IC50 ([3]; ppMlc (T18/S19)): 127 nM
- IC50 [4, 11]: 963 nM

SMILES: c1cc(-c2cn[nH]c2)ccc1Nc1nc(N2C3CNCC2C3)nc2c1COCC2 [Example 317, N-(4-(1H-pyrazol-4-yl)phenyl)-2-(3,6-diazabicyclo[3.1.1]heptan-6-yl)-7,8-dihydro-5H-pyrano[4,3-d]pyrimidin-4-amine]
- inhibition at 0.5 µM [1, 12]: 70%
- IC50 [2]: 38 nM
- inhibition at 0.5 µM [2, 10]: 75%
- IC50 [3]: > 10000 nM
- IC50 ([4]; with TGFβ1, 24 hr): > 10000 nM

- IC50 [1, 9]: 20 nM
- IC50 [2, 9]: 85 nM
- IC50 ([3]; ppMlc (T18/S19)): 231 nM
SMILES: Cc1cc(Nc2ccc3[nH]ncc3c2)nc(N2CCNC(C)C2)n1 (stereo not shown) [Example 204, N-(6-methyl-2-(3-methylpiperazin-1-yl)pyrimidin-4-yl)-1H-indazol-5-amine]
- inhibition at 10 µM [3]: 70%
- IC50 [4, 11]: 1780 nM

SMILES: Fc1cnc(N2C3CNCC2C3)nc1Nc1ccc2[nH]ncc2c1 [Example 220, N-(2-(3,6-diazabicyclo[3.1.1]heptan-6-yl)-5-fluoropyrimidin-4-yl)-1H-indazol-5-amine]
- IC50 [1, 9]: 3.1 nM
- IC50 [2, 9]: 5.9 nM
- inhibition at 1 µM [3]: 45.1%
- IC50 ([3]; ppMlc (T18/S19)): 74 nM
- IC50 [4, 11]: 167 nM

SMILES: CN(C)c1cc(Nc2ccc3[nH]ncc3c2)nc(N2C3CCC2CNC3)n1 [Example 336, 2-(3,8-diazabicyclo[3.2.1]octan-8-yl)-N^4-(1H-indazol-5-yl)-N^6,N^6-dimethylpyrimidine-4,6-diamine]
- inhibition at 0.5 µM [1, 12]: 99%
- IC50 [2]: 3.6 nM
- inhibition at 0.5 µM [2, 10]: 103%
- IC50 [3]: 25 nM
- IC50 ([4]; with TGFβ1, 24 hr): 116 nM

- IC50 [1, 9]: 41 nM
- inhibition at 1 µM [2, 10]: 91%
- IC50 [2, 9]: 104 nM
- IC50 ([3]; ppMlc (T18/S19)): 351 nM
SMILES: Cc1cc(Nc2ccc3[nH]ncc3c2)nc(N2CCNCC2C)n1 (stereo not shown) [Example 207, N-(6-methyl-2-(2-methylpiperazin-1-yl)pyrimidin-4-yl)-1H-indazol-5-amine]
- inhibition at 10 µM [3]: 52.3%
- IC50 [4, 11]: 1260 nM

SMILES: Cc1nc(N2C3CCC2CNC3)nc(Nc2ccc3[nH]ncc3c2)c1C [Example 29, N-(2-(3,8-diazabicyclo[3.2.1]octan-8-yl)-5,6-dimethylpyrimidin-4-yl)-1H-indazol-5-amine]
- IC50 [1]: 42 nM
- inhibition at 1 µM [2, 10]: 102%
- IC50 [3]: 147 nM
- inhibition at 1 µM [3]: 39.1%
- IC50 ([4]; with TGFβ1, 24 hr): 1090 nM
